Laboratory results reported in patent US20250195528A1, “DOSE REGIMEN OF VICASINABIN” (Hoffmann-La Roche Inc., priority 2022, published 2025).
“And” between values parts separate entries of the source, which are not always exact repeats. Equal values may be shown once. “Also recorded” adds a separate entry of the source. Read-outs that look alike come from different tables or passages of the source.

How the values were obtained:
human CB2 = molecular target: T1, human CB2 (Homo sapiens, UniProt P34972); assay: Radioligand binding to CB2, U698M cells expressing endogenous CB2
T1 construct: expressed in transfected cells; host or cells: CHO cells
T1 sequence (P34972 whole entry): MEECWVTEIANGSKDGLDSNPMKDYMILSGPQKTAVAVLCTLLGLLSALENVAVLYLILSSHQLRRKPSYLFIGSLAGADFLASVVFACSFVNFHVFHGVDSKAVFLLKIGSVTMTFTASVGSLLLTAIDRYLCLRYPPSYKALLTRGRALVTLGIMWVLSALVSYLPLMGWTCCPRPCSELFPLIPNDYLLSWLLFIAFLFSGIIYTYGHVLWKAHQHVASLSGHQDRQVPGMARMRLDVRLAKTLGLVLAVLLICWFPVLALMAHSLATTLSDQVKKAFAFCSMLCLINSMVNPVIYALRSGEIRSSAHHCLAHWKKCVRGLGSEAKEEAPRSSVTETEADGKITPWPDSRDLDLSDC

human CB1 = human CB1 (Homo sapiens, UniProt P21554); assay: Human CB1 cAMP assay; format: cell-based
Chain of human CB1 (P21554 whole entry): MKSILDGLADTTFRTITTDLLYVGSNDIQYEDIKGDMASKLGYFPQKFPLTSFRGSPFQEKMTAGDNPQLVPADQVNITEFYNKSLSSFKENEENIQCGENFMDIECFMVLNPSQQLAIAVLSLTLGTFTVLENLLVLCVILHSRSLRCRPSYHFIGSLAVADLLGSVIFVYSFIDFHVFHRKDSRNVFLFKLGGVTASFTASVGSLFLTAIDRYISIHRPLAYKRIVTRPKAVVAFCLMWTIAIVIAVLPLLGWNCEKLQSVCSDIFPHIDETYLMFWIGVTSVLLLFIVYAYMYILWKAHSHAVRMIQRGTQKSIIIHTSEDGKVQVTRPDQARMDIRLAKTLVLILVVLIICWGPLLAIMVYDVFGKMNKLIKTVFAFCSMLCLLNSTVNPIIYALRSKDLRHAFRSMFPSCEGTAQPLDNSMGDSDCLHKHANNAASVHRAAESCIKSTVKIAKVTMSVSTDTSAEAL
Description: Inhibition of cAMP accumulation in Chinese hamster ovary cells stably expressing recombinant CB2 was used to determine the functional potency of RO6868847 for different CB2 species and the selectivity over the closely related CB1.

CB2 receptor on B-cells = molecular target: T2, CB2 receptor on B-cells (Homo sapiens, UniProt P34972); assay: In vitro target engagement: CB2 surface expression on peripheral B cells in whole blood (flow cytometry); format: cell-based; conditions: for Emax: read-out: Mean Emax ± SD (%)
T2 construct: B cells show a low but robust surface expression of CB2; endogenous in cells; host or cells: B cells in human whole blood (healthy participants, diabetic patients)
T2 sequence (P34972 whole entry): as the sequence (P34972 whole entry) above
Description: To monitor target engagement by RO6868847 in humans, a flow cytometry assay was developed utilizing an in-house monoclonal anti-human CB2 antibody in combination with established blood cell markers (CD45, CD14, CD3, and CD19) (1078220). […] As with most GPCR agonists, RO6868847 is expected to trigger CB2 receptor internalization upon CB2 activation, resulting in decreased surface detection. In order to establish this measure as a surrogate target engagement biomarker, freshly isolated whole blood samples (n=9) from healthy participants were incubated in duplicates in vitro for 1 hour at 37° C. with eight different increasing concentrations of RO6868847 and were subsequently subjected to the flow cytometry assay (1078220).
The availability of this in vitro target engagement assay also enabled us to explore the target engagement—exposure response in blood samples obtained from patients with diabetic mellitus (Type 1 and Type 2) and healthy controls matched for age, gender and BMI (Table 6) (1097891). This population was selected as it is similar to the envisaged target patient population for the proof-of-concept Phase II trial, encompassing diabetic patients according to definition by the World Health Organization and/or the American Diabetes Association.

[1] = system: STZ-induced Type 1 diabetes; format: in vivo; conditions: rat, 10 mg/kg
Procedure: Pharmacological studies were performed in vitro and in vivo to investigate the potency, selectivity and activity of RO6868847. Pharmacological effects were determined in vivo in two different diabetic animal models which include the streptozotocin (STZ)-induced rat Type 1 diabetes and genetic Type 2 diabetes mouse models as well as in two acute models with acute inflammatory stimulus (LPS-injections) or laser injury (CNV). Additional in vitro pharmacology studies were performed to explore the pharmacological effect of RO6868847 and the suitability of the assays as biomarkers of target engagement and pharmacodynamic effect (PD) in human whole blood obtained from either healthy volunteers or diabetic patients.
The diversity of the tested models (including acute challenge versus disease-modifying models) and the absence of a recommended nonclinical DME/DR model with proven clinical translatability presents a challenge for the estimation of pharmacologically active exposure in humans.
Exposure was derived from satellite animals or extrapolated from previous PK or PD studies in the same species. […]

[2] = system: LPS-induced cytokine production in whole blood; assay: Ex vivo LPS whole blood challenge in participants of Study BP40387 (MAD); parameters: species or system human
Procedure: In addition to the CB2R-TE whole blood assay, an in vitro LPS whole blood challenge assay was applied using blood from healthy participants that received multiple 300 mg doses of RO6868847 6 in the MAD study.
In example 2, target engagement of RO6868847 was assessed on circulating B-cells from whole blood samples utilizing a newly developed exploratory flow cytometry assay to monitor RO6868847-induced CB2 receptor internalization on B-cells. […] Upon treatment discontinuation CB2 receptor surface expression returned to baseline approximately within 1 week. Target engagement appeared to reach a plateau at doses of 100 mg RO6868847 with only marginal increases at higher doses of RO6868847. In example 2, pro-inflammatory cytokine production was induced by ex vivo stimulation with LPS in freshly obtained whole blood samples, to measure downstream markers of RO6868847-mediated CB2 receptor internalization and explore its pharmacological profile. Serum levels of TNF-α, G-CSF, IL-1β, and […], of participants in Study BP40387 were assessed to investigate the changes of these cytokines in the presence of repeated dose administration of up to 300 mg RO6868847 once-daily for 14 days. […] It should be noted that the IL1-β analysis was negatively affected by a substantial proportion of baseline data, not being reportable (see FIG. 8), especially at the highest tested doses of 300 mg of RO6868847. Substantial variability in these measurements was observed. However, this was expected and no dedicated predefined statistical analysis was performed since cohort sizes were small for this exploratory assessment.

clinical = conditions: both, human, plasma, oral
Procedure: Study BP40387 was a Phase I study that was conducted in healthy male and female participants, and included 5 parts. Part 1 (SAD) consisted of an adaptive, single-ascending-dose, investigator/participant-blind, randomized, placebo-controlled, parallel study to investigate the safety, tolerability, and pharmacokinetics of RO6868847. Part 2 (FE), was designed as an open-label, randomized, two-period crossover, single dose investigation of the effect of food on the pharmacokinetics of RO6868847. Part 3 (MAD), was an adaptive, multiple-ascending-dose, investigator/participant-blind, randomized, placebo-controlled, parallel study to investigate the safety, tolerability, and pharmacokinetics of RO6868847 administered once-daily for 14 days. Part 4 (DDI-CYP Induction), was a non-randomized, open-label, fixed-sequence, two-period study to explore RO6868847-mediated CYP induction at 300 mg administered once-daily for 14 days, using midazolam, repaglinide, and bupropion as probe substrates for CYP3A, CYP2C8, and CYP2B6, respectively. […] Overall, in Part 1 (SAD), a total of 33 healthy participants received single oral doses of RO6868847 ranging between 0.75 mg and 300 mg, and 12 participants received placebo under fasting conditions. In Part 2 (FE), 8 participants received a single oral dose of 100 mg RO6868847 once after an overnight fast of at least 10 hours and once within 30 minutes after starting a high-calorie, high-fat breakfast. In Part 3 (MAD), a total of 30 participants received multiple oral doses of 6 mg to 300 mg RO6868847 QD for 14 days, and 10 participants received placebo.

[3] = steady-state, up to 300 mg once-daily for 14 days
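For AUC in this document: phase I trial BP40387 in healthy male and female volunteers.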
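For Cmax in this document: phase I trial BP40387 in healthy male and female volunteers.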
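For Tmax in this document: phase I trial BP40387 in healthy male and female volunteers.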

**Q.** Which results are given for `Cn1nnnc1Cn1nnc2c(N3CC[C@H](O)C3)nc(C(C)(C)C)nc21` [RO6868847, (3S)-1-[5-tert-butyl-3-[(1-methyltetrazol-5-yl)methyl]triazolo[4,5-d]pyrimidin-7-yl]pyrrolidin-3-ol]?
**A.** IC50 (human CB2): 92.2 ± 13.1 nM; Ki (human CB2): 62.8 nM; EC50 (human CB1): > 10000 nM; IC50 (human CB1): > 10000 nM; CB1/CB2 Ratio (functional selectivity) (human CB1; CB1 EC50 over CB2 EC50): >3600 fold; receptor activation or inhibition (human CB1; highest concentration of 10 μM): no receptor activation or inhibition; Fold change vs HPs (CB2 receptor on B-cells; DM): 1.8x; Emax (CB2 receptor on B-cells; DM, n = 8): 56.2 ± 11.7%; Fold change vs HPs (CB2 receptor on B-cells; Healthy Participants): 1; CB2 surface expression on B-cells (CB2 receptor on B-cells; Healthy Participants, n = 9): concentration-dependent reduction of CB2 surface expression on B-cells; Mean Emax ± SD (%) (CB2 receptor on B-cells; Healthy Participants, n = 9): 55.0 ± 4.6 (n = 9) %; Emax (CB2 receptor on B-cells; Healthy Participants, n = 9): 55 ± 4.6%; Fold change vs HPs (CB2 receptor on B-cells; Matched Healthy): 2.6 x; Emax (CB2 receptor on B-cells; Matched Healthy, n = 8): 55.7 ± 6.8%; IC50 (CB2 receptor on B-cells; Mean IC50 (CB2 on B-cells) ± SD (nM), DM, n = 8, one outlier excluded): 172 ± 82 nM; IC50 (CB2 receptor on B-cells; Mean IC50 (CB2 on B-cells) ± SD (nM), Healthy Participants, n = 9, 1 hour at 37° C.): 96.5 ± 27.1 nM; IC50 (CB2 receptor on B-cells; Mean IC50 (CB2 on B-cells) ± SD (nM), Matched Healthy, n = 8): 253 ± 206 nM; fold higher concentration/exposure required for similar CB2R target engagement (CB2 receptor on B-cells; diabetic and matched (elderly) healthy vs younger healthy participants): 2-3 fold and ~3 fold; CB2 receptor internalization on the surface of B-cells (CB2 receptor on B-cells; diabetic patients and matched healthy participants): dose-dependent CB2 receptor internalization; IC50 (CB2 receptor on B-cells; mean IC50 (TE), Healthy participants, 9 donors, converted): 96.5 nM; effect on disease marker [1]: full effect; unbound AUC0-24 [S-epimer], upper bound of pharmacologically active exposure ([1]; in vivo): 546 ng·hr/mL; LPS-induced cytokine release / pro-inflammatory cytokine production ([2]; multiple doses, MAD): appeared to attenuate; also recorded: attenuation of LPS-induced cytokine release was observed only at the higher end of the dose range; IFN-γ level after ex vivo LPS vs baseline [2, 3]: did not show any detectable trend; TNF-α, G-CSF and IL1-β levels after ex vivo LPS vs baseline [2, 3]: concentration-dependent effect; half-life (clinical): 8.27 to 39 h; AUC (clinical; 6 mg): 870 ng·h/mL; Cmax (clinical; 6 mg): 97.9 ng/mL; half-life (clinical; 6 mg): 8.27 h; AUC (clinical; 20 mg): 2610 ng·h/mL; Cmax (clinical; 20 mg): 289 ng/mL; Tmax (clinical; 20 mg): 1.06 h; half-life (clinical; 20 mg): 15 h; AUC (clinical; 60 mg): 8480 ng·h/mL; Cmax (clinical; 60 mg): 899 ng/mL; Tmax (clinical; 60 mg): 2 h; half-life (clinical; 60 mg): 31.6 h; AUC (clinical; 200 mg): 21400 ng·h/mL; Cmax (clinical; 200 mg): 2380 ng/mL; Tmax (clinical; 200 mg): 3 h; AUC (clinical; 300 mg): 27100 ng·h/mL; Cmax (clinical; 300 mg): 2970 ng/mL; Tmax (clinical; 300 mg): 2.5 h; half-life (clinical; 300 mg): 39 h
